Experimental data reported in publication PMC11855866 (International Journal of Molecular Sciences, 2025).
Converted amounts (≈) assume the structure as drawn. Like-named read-outs stand apart in the source and are kept apart here.

Tests used:
HepG2 cells [1] = experiment: MTT cytotoxicity / synergy assay, 72 h, HepG2
Procedure: (§1) The synergistic effects of drug combinations were studied in various cancer cell lines, including MCF-7 (human breast cancer), A549 (human lung cancer), U-87 MG (human malignant glioma), HepG2 (human liver cancer), and HUH7 (human liver cancer). HMEC-1, an immortalized human microvascular endothelial cell line, was used as a model for normal cells. All cell lines were purchased from ATCC (Rockville, MD, USA).
(§2) The cancer cell lines were cultured in Dulbecco’s Modified Eagle’s Medium (DMEM; Sigma-Aldrich) supplemented with 10% FBS and 1% penicillin/streptomycin mixture (10,000 U/mL penicillin and 10 mg/mL streptomycin; Sigma-Aldrich) at 37 °C in a humidified atmosphere with 5% CO2.
(§3) For the MTT assay, exponentially growing cells were seeded into 96-well plates at a density of 5 × 10³ cells per well. After 24 h of incubation, the medium was replaced with 100 µL of fresh medium containing the tested compounds. After 72 h of treatment, cell viability was assessed using the MTT assay as described earlier. […] IC50 values were calculated using GraphPad Prism 9 software (GraphPad Software).

MCF-7 cells [2] = experiment: MTT cytotoxicity / synergy assay, 72 h, MCF-7; type: cell-based, human; settings: 72 h; for decrease in cell viability caused by 0.05% Tween-80: with vs. without 0.05% Tween-80; for IC50: MTT, n.d. = IC50 not achieved within concentrations tested, read-out: IC50 Value in Specific Cell Line, MCF-7
Procedure: Stock solutions of the tested compounds were first prepared in DMSO at 200-fold the intended final concentration. […] The cells were treated for 72 h under the same conditions.
Following treatment, 25 μL of MTT solution was added to each well, and the plates were incubated for 2 h at 37 °C. […] IC₅₀ values, indicating the concentration required to reduce cell viability by 50% compared to untreated controls (set as 100% viability), were calculated using GraphPad Prism 9 software (GraphPad Software, San Diego, CA, USA). All data from this preliminary cytotoxic assay were analyzed by ANOVA followed by Tukey’s post hoc test for multiple comparisons, with significance set at p < 0.05. A similar statistical approach was used for the rest of the experimental work presented in this study.

HSA = tested on: HSA; design: method as in Figure S2 [39–71]; settings: ref Figure S2 [39–71]; cited from earlier work
HMEC-1 cells = experiment: MTT cytotoxicity / synergy assay, 72 h, HMEC-1; settings: read-out: IC50 Value in Specific Cell Line, HMEC-1; for CC50: Homo sapiens, HMEC-1, 72 h
Procedure: as §1, §2, §3

[3] = Hemolysis (Drabkin's method); type: cell-based; settings: human, washed erythrocyte (RBC) suspension, 40% hematocrit, pH 7.4, single drug, RT, dark, CTRL− 11.6%
Procedure: Blood samples were collected from healthy human volunteers into Vacutainer tubes containing 3% sodium citrate (BD Biosciences, Warsaw, Poland). Whole blood was centrifuged at 1500 rpm (RCF = 214 g) for 10 min in a CompactStar CS4 centrifuge (VWR) at RT to separate erythrocytes, which were washed twice with PBS (pH 7.4) and centrifuged at 1500 rpm for 5 min at RT after each wash. Hematocrit was measured to adjust the final RBC concentration in PBS (pH 7.4) to 40%. The drugs were then dissolved in the RBC suspension at the final concentrations outlined in Figure 8. RBCs incubated in dH2O were used as a positive control (100% hemolysis), while RBCs in PBS were used as the negative control. A blank sample of PBS without RBCs or drugs provided a baseline for absorbance measurements. Experimental samples, along with positive, negative, and vehicle (0.5% DMSO) controls, were incubated for 4 h at RT in the dark. After incubation, the samples were centrifuged at 1500 rpm for 5 min at RT, and the supernatant was collected to measure hemoglobin release using Drabkin’s method. Absorbance was measured at 540 nm with a Jenway 6305 UV/Vis spectrophotometer (Bibby Scientific, Staffordshire, UK). This study was conducted in triplicate. The percentage of hemolysis was calculated by comparing the absorbance at 540 nm (OD540) of the test sample with that of the positive control using the following formula:(2) % Hemolysis=OD540Test−OD540(Blank)/OD540Total Lysis−OD540(Blank)×100%

[4] = tested on: A549, HepG2, MCF-7, and U-87MG; experiment: Doxorubicin accumulation assay, sensitive cell lines; type: cell-based, human
Procedure: Cells were seeded at a density of 2 × 10^4 cells per well in black 96-well plates as described in Section 3.6.

[5] = design: method as in Figure S2 [39–71]; settings: ref Figure S2 [39–71]; cited from earlier work
[6] = DLS particle size measurements; type: physicochemical; settings: 100–500 µM CHLO, […] BSA, 0.05% Tween-80
Procedure: Dynamic light scattering (DLS) measurements were performed using a Zetasizer Nano ZS instrument (Malvern Instruments, Malvern, UK). Samples of 2 mL were placed in disposable PMMA cuvettes (cat. #634-0677; VWR, Gdańsk, Poland) and measured at 37 °C. To ensure accuracy, each sample was measured at least three times. The data were processed using DTS v6.2 software (Malvern Instruments).

A549 cells [7] = experiment: MTT cytotoxicity / synergy assay, 72 h, A549; settings: Homo sapiens, A549, 72 h, read-out: IC50 Value in Specific Cell Line, A549
Procedure: as §1, §2, §3

HepG2 cells [8] = settings: human
Procedure: as §1, §2, §3

U-87MG cells = experiment: MTT cytotoxicity / synergy assay, 72 h, U-87MG; type: cell-based; settings: Homo sapiens, n.d. = IC50 not achieved within concentrations tested, read-out: IC50 Value in Specific Cell Line, U-87MG
Procedure: as §1, §2, §3

HuH7 cells = experiment: MTT cytotoxicity / synergy assay, 72 h, HuH7; settings: Homo sapiens; for IC50: Huh-7, 72 h, read-out: IC50 Value in Specific Cell Line, HuH7
Procedure: as §1, §2, §3

A549 cells [9] = settings: human
Procedure: as §1, §2, §3

MRP1 = settings: cited from earlier work
mammary tumors [10] = settings: 20 days; GLIB 0.06 mg/kg/day orally, tamoxifen 1 mg/kg/day s.c.; cited from earlier work
mammary tumors [11] = settings: 20 days; GLIB 0.06 mg/kg/day orally, tamoxifen 1 mg/kg/day s.c.; cited from earlier work; remark: listed apart in the source
MCF-7 cells [12] = settings: read-out: IC50 value, MCF-7; cited from earlier work
BSA = target: BSA; design: method as in PMID 29772022; settings: read-out: Kd (binding to BSA); cited from earlier work
[13] = Analysis of drug stability in PBS; type: physicochemical; settings: equimolar mixtures with DOXO, PBS (pH 7.4), 37 °C, 7 to 14 days
Procedure: The samples were prepared in PBS (pH 7.4) containing 0.05% (v/v) Tween-80 and 0.5% (v/v) DMSO. […] The samples were placed into 2 mL HPLC vials, sealed, and incubated at 37 °C for 7 to 14 days. Every 24 h, 20 µL aliquots were taken for HPLC analysis.

[14] = tested on: 4T1 breast cancer and B16F10 melanoma xenografts; settings: 4T1, B16F10 xenografts, MMTV-PyMT; cited from earlier work
[15] = Homo sapiens, HepG2, 72 h, read-out: IC50 Value in Specific Cell Line, HepG2

Q: With CCCCNC(=O)NS(=O)(=O)c1ccc(N)cc1 [CARB, Carbutamide] as the molecule, how does the IC50 (HepG2 cells [1]; [15]) read?
A: 70.7 ± 1.4 µM

Q: With CCCNC(=O)NS(=O)(=O)c1ccc(Cl)cc1 [CHLO, Chlorpropamide] as the molecule, how does the “decrease in cell viability caused by 0.05% Tween-80” value (MCF-7 cells [2]) read?
A: 3.2%

Q: What about the IC50 (MCF-7 cells [2]; Homo sapiens, MCF7, 72 h) of the same molecule?
A: > 500 µM

Q: And the “nKa (global affinity constant, HSA)” value (HSA)?
A: 62000 M⁻¹

Q: And the CC50 (HMEC-1 cells)?
A: 218.2 ± 1.6 µM

Q: What about the hemolysis at 4 h [3] of the same molecule?
A: 11.2 to 11.9%

Q: And the “increase of DOXO levels” value [4]?
A: up to 2.3 times

Q: And the solubility [5]?
A: 1000 µM (≈ 277 µg/mL)

Q: And the aggregate formation [6]?
A: do not form aggregates

Q: What about the IC50 (HepG2 cells [1]; Homo sapiens, HepG2, 72 h, read-out: IC50 Value in Specific Cell Line, HepG2, MTT, 72 h, n.d. = IC50 not achieved within concentrations tested) of the same molecule?
A: 480 ± 54.1 µM

Q: For COc1cccc2c1C(=O)c1c(O)c3c(c(O)c1C2=O)C[C@@](O)(C(=O)CO)C[C@@H]3O[C@H]1C[C@H](N)[C@H](O)[C@H](C)O1 [DOXO, Doxorubicin], which “decrease in cell viability caused by 0.05% Tween-80” value (MCF-7 cells [2]) is on record?
A: 12.6%

Q: What about the IC50 (MCF-7 cells [2]; Homo sapiens, MCF7) of the same molecule?
A: 0.46 ± 0.06 µM

Q: And the IC50 (A549 cells [7])?
A: 0.27 ± 0.02 µM

Q: What about the CC50 (HMEC-1 cells) of the same molecule?
A: 0.08 ± 0.01 µM

Q: What about the HepG2 cell viability (HepG2 cells [8]) of the same molecule?
A: 0.695 ± 0.003

Q: And the IC50 (U-87MG cells)?
A: 0.57 ± 0.11 µM

Q: What about the hemolysis at 4 h [3] of the same molecule?
A: 32.3%

Q: What about the IC50 (HuH7 cells) of the same molecule?
A: 0.28 ± 0.02 µM

Q: And the viability at 0.65 µM (HuH7 cells; Huh-7, read-out: HuH7 cell viability)?
A: 53.5 ± 0.4%

Q: And the A549 cell viability (A549 cells [9])?
A: 0.643 ± 0.002

Q: And the IC50 (HepG2 cells [1]; [15])?
A: 0.3 ± 0.01 µM

Q: What does the source list for COc1ccc(Cl)cc1C(=O)NCCc1ccc(S(=O)(=O)NC(=O)NC2CCCCC2)cc1 [GLIB, Glibenclamide]?
A: concentration increasing intracellular accumulation of calcein (MRP1): ≥ 3.12 µM; CC50 (HMEC-1 cells): 248 ± 3.6 µM; tumors responded (regressed or remained stable) (mammary tumors [10]): 64%; tumors responded (mammary tumors [11]): no response; IC50 (HuH7 cells): 493.2 ± 1.3 µM; IC50 (MCF-7 cells [12]): 325 µM; Kd (BSA): 0.67 µM

Q: With Cc1ccc(S(=O)(=O)NC(=O)NN2CC3CCCC3C2)cc1 (stereo not shown) [GLIC, Gliclazide] as the molecule, how does the IC50 (MCF-7 cells [2]; Homo sapiens, MCF7, 72 h) read?
A: 87.9 µM

Q: What about the CC50 (HMEC-1 cells) of the same molecule?
A: 447.7 ± 2.3 µM

Q: What about the IC50 (MCF-7 cells [12]) of the same molecule?
A: 216 µM

Q: And the stability [13]?
A: slow but noticeable degradation

Q: What about the Kd (BSA) of the same molecule?
A: 155 µM

Q: What does the source list for Cc1cnc(C(=O)NCCc2ccc(S(=O)(=O)NC(=O)NC3CCCCC3)cc2)cn1 [GLIP, Glipizide]?
A: IC50 (MCF-7 cells [2]; Homo sapiens, MCF7): 339 ± 18.8 µM; CC50 (HMEC-1 cells): 454.1 ± 1.8 µM; IC50 (HuH7 cells): 421.9 ± 0.5 µM; effect on tumor growth and metastasis [14]: inhibited tumor growth and metastasis; IC50 (HepG2 cells [1]; [15]): 229 ± 10.9 µM

Q: Which results are given for COc1ccc2c(c1)C(=O)N(CCc1ccc(S(=O)(=O)NC(=O)NC3CCCCC3)cc1)C(=O)C2(C)C [GLIQ, Gliquidone]?
A: IC50 (MCF-7 cells [2]; Homo sapiens, MCF7): 68.8 ± 2.5 µM; IC50 (A549 cells [7]): 259 ± 16.3 µM; CC50 (HMEC-1 cells): 157 ± 2.2 µM; IC50 (U-87MG cells): 57.1 ± 1.8 µM; hemolysis at 4 h [3]: 11.2 to 11.9%; increase of DOXO levels [4]: up to 2.3 times; IC50 (HuH7 cells): 400.7 ± 2.2 µM; IC50 (HepG2 cells [1]; [15]): 39.6 ± 2.6 µM

Q: Which IC50 (MCF-7 cells [2]) does the source give for COCCCNC(=O)NS(=O)(=O)c1ccc(C)cc1 [MESU, N-(3-methoxy-propyl)-N’-(toluene-4-sulfoyl)-urea] here?
A: 495.9 ± 0.8 µM

Q: And the IC50 (HMEC-1 cells; MTT, 72 h, n.d. = IC50 not achieved within concentrations tested)?
A: 78.3 ± 2.4 µM

Q: And the IC50 (HepG2 cells [1]; read-out: IC50 Value in Specific Cell Line, HepG2, MTT, 72 h, n.d. = IC50 not achieved within concentrations tested)?
A: 63.1 ± 0.3 µM

Q: With Cc1ccc(S(=O)(=O)NC(=O)NN2CCCCCC2)cc1 [TOLA, Tolazamide] as the molecule, how does the CC50 (HMEC-1 cells) read?
A: 468.6 ± 0.5 µM

Q: And the stability [13]?
A: slow but noticeable degradation

Q: What about the IC50 (HepG2 cells [1]; [15]) of the same molecule?
A: 470 ± 12.4 µM

Q: What does the source list for CCCCNC(=O)NS(=O)(=O)c1ccc(C)cc1 [TOLB, Tolbutamide]?
A: IC50 (MCF-7 cells [2]; Homo sapiens, MCF7): 461 ± 53.9 µM; CC50 (HMEC-1 cells): 88.2 ± 4.1 µM; IC50 (HepG2 cells [1]; [15]): 232 ± 21.6 µM

Q: Which “tumors responded (regressed or remained stable)” value (mammary tumors [10]) does the source give for CC/C(=C(\c1ccccc1)c1ccc(OCCN(C)C)cc1)c1ccccc1 [tamoxifen] here?
A: 57%

Q: And the tumors responded (mammary tumors [11])?
A: 75%

Q: With Tween-80 as the molecule, how does the “concentration above which survival of MCF-7 cells is significantly reduced” value (MCF-7 cells [2]) read?
A: above 0.05 % (v/v)
